Source: article PMC6658782, “The Novel Arylamidine T-2307 Selectively Disrupts Yeast Mitochondrial Function by Inhibiting Respiratory Chain Complexes” (Antimicrobial Agents and Chemotherapy, 2019)
Converted amounts (≈) assume the structure as drawn.

Legend:
[1] = system: S. cerevisiae; conditions: cited from earlier work
[2] = system: Saccharomyces cerevisiae; experiment: Intracellular ATP levels in yeast (luminescence assay); type: cell-based
Description: Intracellular ATP levels were measured using a previously described method with the following modifications ([25]). S. cerevisiae was grown overnight in a semisynthetic medium (per liter: 20 g of lactate, 0.5 g of glucose, 3 g of yeast extract, 1 g of KH2PO4, 1 g of NH4Cl, 0.5 g of CaCl2·2H2O, 0.5 g of NaCl, and 0.6 g of MgCl2·6H2O; adjusted to pH 5.5 with NaOH). The cells were harvested during the logarithmic-growth phase by centrifugation (3,000 × g at room temperature for 5 min). They were then washed and resuspended in distilled water. The suspension was diluted in a semisynthetic medium to yield 1 × 10^6 cells/ml. After 5 min of incubation at 30°C, T-2307 and antimycin A were added to the suspension. Further, the cells were incubated for 8 h at 30°C. Subsequently, the cells were collected by centrifugation (4,200 × g at 4°C for 5 min). After washes performed with phosphate-buffered saline (PBS; pH 7.2), the cells were resuspended in PBS and diluted to yield 1 × 10^6 cells/ml. ATP levels were measured using the BacTiter-Glo microbial cell viability assay (Promega, Madison, WI, USA), following the manufacturer’s instructions. Luminescence was measured using a microplate reader POLARstar Optima (BMG Labtech GmbH). To determine the viable cell counts, the cell suspension was diluted with PBS and spread on YPD agar. After a 2-day incubation at 30°C, colonies were counted. The intracellular ATP level is expressed as relative light units (RLU)/CFU.

[3] = system: whole yeast cells; experiment: Oxygen consumption of whole yeast cells (oxygen electrode); type: cell-based, Saccharomyces cerevisiae
[4] = molecular target: T1, respiratory chain complex II + III (Candida albicans, UniProt A0A1D8PHA3+A0A1D8PJX3+P0C8L0); experiment: Respiratory chain enzymatic activity, complexes II plus III, C. albicans; type: biochemical; conditions: C. albicans mitochondria; read-out: IC50 ± SD, Complex II + III
T1 sequence (P0C8L0 1-387): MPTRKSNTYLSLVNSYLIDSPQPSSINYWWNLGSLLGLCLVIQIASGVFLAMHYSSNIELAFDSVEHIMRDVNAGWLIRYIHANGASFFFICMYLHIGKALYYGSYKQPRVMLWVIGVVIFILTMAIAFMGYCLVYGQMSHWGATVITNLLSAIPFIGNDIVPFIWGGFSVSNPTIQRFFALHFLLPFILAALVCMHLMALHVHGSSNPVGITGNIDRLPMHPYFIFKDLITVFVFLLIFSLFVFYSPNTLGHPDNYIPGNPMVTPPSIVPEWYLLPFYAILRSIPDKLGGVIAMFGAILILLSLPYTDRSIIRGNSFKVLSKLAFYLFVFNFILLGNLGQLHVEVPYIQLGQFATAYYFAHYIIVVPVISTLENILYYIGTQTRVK
T1 sequence (A0A1D8PHA3 43-288): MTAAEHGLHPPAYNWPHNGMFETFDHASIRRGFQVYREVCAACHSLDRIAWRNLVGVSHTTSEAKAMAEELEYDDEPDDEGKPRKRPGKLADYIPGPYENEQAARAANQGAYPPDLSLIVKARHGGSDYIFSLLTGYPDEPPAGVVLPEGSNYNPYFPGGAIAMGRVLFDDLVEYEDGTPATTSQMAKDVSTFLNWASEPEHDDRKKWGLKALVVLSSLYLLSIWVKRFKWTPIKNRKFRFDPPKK
T1 sequence (A0A1D8PJX3 30-213): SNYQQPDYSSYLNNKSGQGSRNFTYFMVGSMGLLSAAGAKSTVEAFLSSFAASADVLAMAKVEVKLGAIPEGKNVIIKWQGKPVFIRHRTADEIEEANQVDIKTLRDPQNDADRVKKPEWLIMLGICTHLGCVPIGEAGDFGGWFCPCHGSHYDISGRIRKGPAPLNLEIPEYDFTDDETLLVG

[5] = molecular target: respiratory chain complex IV (Bos taurus, UniProt P00396+P00415+P68530); experiment: MitoCheck complex IV activity assay, bovine heart mitochondria; type: biochemical

In the case of `N=C(N)c1ccc(OCCCC2CCN(CCCOc3ccc(C(=N)N)cc3)CC2)cc1` [T-2307], the MIC reported previously [1] is given as 2 nM (≈ 0.875 ng/mL), the “concentration that significantly decreased intracellular ATP levels” value [2] is given as no less than 0.01 µM and the “reduction in intracellular ATP level” value [2] is given as roughly 80%. For the same compound, the “reduction in intracellular ATP levels” value [2] was greater than 50%, the “effect on oxygen consumption in whole yeast cells” value [3] was “dose-dependent inhibition of respiration” and the IC50 [4] was 220 ± 55 µM. For the same compound, the “IC50 for complex IV in bovine heart mitochondria relative to yeast mitochondria” value [5] was greater than 10 fold, the IC50 ([5]; bovine heart mitochondria, read-out: IC50 ± SD, Complex IV) was greater than 3000 µM and the remaining activity at 3000 µM ([5]; read-out: remaining enzymatic activity of complex IV) was 92%.
